The text below walks through data of patent US8921319B2, “Serine protease inhibitors” (The Medicines Company (Leipzig) GmbH, priority 2010, dated 2014).

Where two headings read alike, the source gives them in different places.

One data set deals with Factor Xa (human) (Homo sapiens (Human), UniProt P00742). Description: Enzyme assay, inhibition constant for factor Xa (chromogenic substrate, Dixon method). The format is biochemical. The conditions noted are these: read-out: Ki FXa. The procedure:
(§1) Reactions were started by addition of 50 μl of enzyme solution.
(§2) The Ki values are the mean of at least two measurements. Enzymes and substrates used are set out in Table 1 below: […]

Another data set has as its target plasma kallikrein (Homo sapiens (Human), UniProt P03952). Description: Enzyme assay, inhibition constant for human plasma kallikrein (chromogenic substrate, Dixon method). Type of data set: biochemical. The settings on record: 25° C., Tris HCl buffer pH 8.0, substrate H-D-Pro-Phe-Arg-pNA, mean of at least two measurements; read-out: Ki PK. How it is done: as §1, §2

A further data set has as its target thrombin (Bos taurus (Bovine), UniProt P00735). Kind of data set: Enzyme assay, inhibition constant for thrombin (chromogenic substrate, Dixon method). Type of data set: biochemical, Rind. The settings on record: substrate CH3SO2-D-Cha-Gly-Arg-pNA, mean of at least two measurements. The procedure:
as §1, §2

Data set [1] addresses T1, plasmin (Homo sapiens (Human), UniProt P00747). The conditions noted are these: background, literature; read-out: Ki / inhibition constant for plasmin; cited from earlier work.
Target sequence in this assay (P00747 581-810, species assumed): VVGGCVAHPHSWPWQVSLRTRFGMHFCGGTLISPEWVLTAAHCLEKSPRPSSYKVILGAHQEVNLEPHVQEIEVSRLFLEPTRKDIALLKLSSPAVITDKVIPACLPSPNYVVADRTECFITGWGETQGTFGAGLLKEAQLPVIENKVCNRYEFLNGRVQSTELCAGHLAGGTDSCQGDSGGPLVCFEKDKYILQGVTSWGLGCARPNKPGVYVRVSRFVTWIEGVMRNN
Target sequence in this assay (P00747 97-580 partner, species assumed): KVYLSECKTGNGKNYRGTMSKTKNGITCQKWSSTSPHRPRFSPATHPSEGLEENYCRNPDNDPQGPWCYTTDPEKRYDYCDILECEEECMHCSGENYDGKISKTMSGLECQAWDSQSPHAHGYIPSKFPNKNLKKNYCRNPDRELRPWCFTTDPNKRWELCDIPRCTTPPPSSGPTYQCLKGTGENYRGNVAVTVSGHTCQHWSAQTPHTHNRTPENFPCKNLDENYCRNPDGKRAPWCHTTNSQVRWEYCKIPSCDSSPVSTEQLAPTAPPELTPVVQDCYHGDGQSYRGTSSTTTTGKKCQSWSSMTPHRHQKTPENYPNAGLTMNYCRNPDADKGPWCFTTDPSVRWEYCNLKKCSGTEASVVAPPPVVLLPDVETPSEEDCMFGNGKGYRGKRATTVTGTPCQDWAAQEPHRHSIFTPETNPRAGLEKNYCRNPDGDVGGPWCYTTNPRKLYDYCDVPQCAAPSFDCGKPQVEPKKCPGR
Data set [2] concerns the target T1, plasmin. Kind of data set: Enzyme assay, inhibition constant for human plasmin (chromogenic substrate, Dixon method). The conditions noted are these: 25° C., Tris HCl buffer pH 8.0, substrate Tos-Gly-Pro-Lys-pNA, mean of at least two measurements; read-out: Ki h Plasmin. Type of data set: biochemical. How it is done: as §1, §2
Target sequence in this assay (P00747 581-810): as the sequence (P00747 581-810, species assumed) above
Target sequence in this assay (P00747 97-580 partner): as the sequence (P00747 97-580 partner, species assumed) above
Another data set concerns the target trypsin. The settings on record: background; cited from earlier work.
For data set [3] the following is noted: cited from earlier work.
The mark [4] stands for this setting: substrate CH3OCO-D-Cha-Gly-Arg-pNA, mean of at least two measurements.

plasma kallikrein, sequence (P03952 391-638): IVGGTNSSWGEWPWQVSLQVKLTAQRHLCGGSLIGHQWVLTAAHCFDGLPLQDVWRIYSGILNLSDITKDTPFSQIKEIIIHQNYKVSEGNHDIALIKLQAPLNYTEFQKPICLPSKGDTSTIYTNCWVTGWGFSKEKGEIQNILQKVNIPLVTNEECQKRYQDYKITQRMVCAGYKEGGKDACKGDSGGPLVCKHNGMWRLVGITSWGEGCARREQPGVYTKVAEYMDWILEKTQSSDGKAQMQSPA
plasma kallikrein, sequence (P03952 20-390 partner): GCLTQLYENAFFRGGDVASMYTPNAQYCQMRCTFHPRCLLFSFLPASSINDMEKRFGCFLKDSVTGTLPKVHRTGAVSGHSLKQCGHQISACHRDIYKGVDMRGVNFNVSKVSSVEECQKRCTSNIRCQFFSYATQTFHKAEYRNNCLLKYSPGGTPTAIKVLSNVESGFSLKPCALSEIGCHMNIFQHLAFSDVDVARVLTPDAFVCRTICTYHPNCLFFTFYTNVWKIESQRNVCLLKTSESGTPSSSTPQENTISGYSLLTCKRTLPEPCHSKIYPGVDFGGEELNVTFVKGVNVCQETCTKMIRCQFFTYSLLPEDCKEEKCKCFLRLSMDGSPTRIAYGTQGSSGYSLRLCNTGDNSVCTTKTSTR
Factor Xa (human), sequence (P00742 235-488): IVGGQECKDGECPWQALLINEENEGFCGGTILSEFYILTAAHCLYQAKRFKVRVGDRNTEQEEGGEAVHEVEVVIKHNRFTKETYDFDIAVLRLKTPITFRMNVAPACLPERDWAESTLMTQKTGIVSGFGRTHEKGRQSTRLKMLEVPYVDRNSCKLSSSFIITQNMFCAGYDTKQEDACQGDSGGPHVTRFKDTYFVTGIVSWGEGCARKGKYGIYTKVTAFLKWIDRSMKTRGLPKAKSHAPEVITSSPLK
Factor Xa (human), sequence (P00742 41-179 partner): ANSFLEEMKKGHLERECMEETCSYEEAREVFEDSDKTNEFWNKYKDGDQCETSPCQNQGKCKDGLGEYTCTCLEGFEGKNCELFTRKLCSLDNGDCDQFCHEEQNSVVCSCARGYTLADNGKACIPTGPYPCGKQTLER

In the case of `N=C(N)c1ccc(CNC(=O)[C@@H]2CCC(=O)NCc3cccc(c3)CNC(=O)CC[C@@H](NS(=O)(=O)Cc3ccccc3)C(=O)N2)cc1` [Inhibitor 13], the Ki on Factor Xa (human) (setting [4]) worked out at 3430 nM; at plasma kallikrein, 25 nM; at thrombin, 2020 nM.

For the compound `N=C(N)c1ccc(CNC(=O)[C@@H]2CCN2C(=O)[C@H](NCC(=O)O)C2CCCCC2)cc1` [melagatran], on plasmin [1], the Ki is 700 nM.

Turning to `N=C(N)c1ccc(CNC(=O)[C@@H]2Cc3ccc(cc3)CNC(=O)CN3CCN(CC3)CC(=O)NCc3ccc(cc3)C[C@@H](NS(=O)(=O)Cc3ccccc3)C(=O)N2)cc1` [Inhibitor 9], the Ki was determined as 3470 nM at Factor Xa (human) (setting [4]), 493 nM on plasma kallikrein and 2120 nM on thrombin.

`N=C(N)c1ccc(CNC(=O)[C@@H]2Cc3ccc(cc3)CNC(=O)Cc3cccc(c3)CC(=O)NCc3ccc(cc3)C[C@@H](NS(=O)(=O)Cc3ccccc3)C(=O)N2)cc1` [Inhibitor 3]: the Ki at Factor Xa (human) (setting [4]) is 5700 nM; at plasma kallikrein, 550 nM; on thrombin it was 3000 nM.

For `N=C(N)c1ccc(CNC(=O)[C@@H]2Cc3ccc(cc3)NC(=O)CN3CCN(CC3)CC(=O)Nc3ccc(cc3)C[C@@H](NS(=O)(=O)Cc3ccccc3)C(=O)N2)cc1` [Inhibitor 15], the Ki on Factor Xa (human) (setting [4]) was greater than 10000 nM; on plasma kallikrein it was 320 nM; at plasmin [2], 0.68 nM; at thrombin, 8400 nM.

Regarding `N=C(N)c1ccc(CNC(=O)[C@@H]2Cc3cccc(c3)CNC(=O)Cc3ccccc3CC(=O)NCc3cccc(c3)C[C@@H](NS(=O)(=O)Cc3ccccc3)C(=O)N2)cc1` [Inhibitor 7], the results for the Ki on Factor Xa (human) (setting [4]), on plasma kallikrein and at thrombin were 103 nM, 8.9 nM and 575 nM, respectively.

`N=C(N)c1ccc(CNC(=O)[C@@H]2Cc3ccc(cc3)CNC(=O)Cc3ccc(cc3)CC(=O)NCc3ccc(cc3)C[C@@H](NS(=O)(=O)Cc3ccccc3)C(=O)N2)cc1` [Inhibitor 4]: the results for the Ki on Factor Xa (human) (setting [4]), at plasma kallikrein and at thrombin were 9370 nM, 868 nM and 6520 nM, respectively.

`N=C(N)c1ccc(CNC(=O)[C@@H]2Cc3cccc(c3)CNC(=O)Cc3ccc(cc3)CC(=O)NCc3cccc(c3)C[C@@H](NS(=O)(=O)Cc3ccccc3)C(=O)N2)cc1` [Inhibitor 6]: the Ki at Factor Xa (human) amounted to 152 nM; on plasma kallikrein, 136 nM; on thrombin, 45.4 nM.

Take `N=C(N)c1ccc(CNC(=O)[C@@H]2Cc3cccc(c3)CNC(=O)CN3CCN(CC3)CC(=O)NCc3cccc(c3)C[C@@H](NS(=O)(=O)Cc3ccccc3)C(=O)N2)cc1` [Inhibitor 8]: the Ki was determined as 26.3 nM on Factor Xa (human) (setting [4]), 31.6 nM on plasma kallikrein and 9.1 nM on thrombin.

Consider `N=C(N)c1ccc(CNC(=O)[C@@H]2Cc3cccc(c3)CNC(=O)Cc3cccc(c3)CC(=O)NCc3cccc(c3)C[C@@H](NS(=O)(=O)Cc3ccccc3)C(=O)N2)cc1` [Inhibitor 5], for which the Ki on Factor Xa (human) (setting [4]) is 42.1 nM; on plasma kallikrein, 17.4 nM; on thrombin, 26.8 nM.

Turning to `N=C(N)c1ccc(CNC(=O)[C@@H]2Cc3cn(nn3)Cc3cccc(n3)Cn3cc(nn3)C[C@@H](NS(=O)(=O)Cc3ccccc3)C(=O)N2)cc1` [Inhibitor 2], the Ki is 1860 nM at Factor Xa (human) (setting [4]), 10.1 nM at plasma kallikrein, 2.2 nM on plasmin [2] and 4560 nM at thrombin.

Regarding `N=C(N)c1ccc(CNC(=O)[C@@H]2Cc3cn(nn3)Cc3cccc(c3)Cn3cc(nn3)C[C@@H](NS(=O)(=O)Cc3ccccc3)C(=O)N2)cc1` [Inhibitor 1], the Ki on Factor Xa (human) (setting [4]) was determined as 206 nM; at plasma kallikrein, 2.4 nM; at plasmin [2], 0.77 nM; at thrombin, 4300 nM.

In the case of aprotinin, the Ki at trypsin was 0.1 nM. Besides, the “risk of anaphylactic shock” value is listed as less than 0.1% in data set [3] (first administration) and 4-5% in data set [3] (repeated administration within 200 days).

As to `N=C(N)c1ccc(CNC(=O)[C@@H]2Cc3ccc(cc3)OCCCCOc3ccc(cc3)C[C@@H](NS(=O)(=O)Cc3ccccc3)C(=O)N2)cc1` [Inhibitor 11], the Ki was found to be 2010 nM at Factor Xa (human) (setting [4]), 34.2 nM on plasma kallikrein, 1.9 nM on plasmin [2] and 510 nM at thrombin.

As to `N=C(N)c1ccc(CNC(=O)[C@@H]2Cc3cn(nn3)Cc3ccc(cc3)Cn3cc(nn3)C[C@@H](NS(=O)(=O)Cc3ccccc3)C(=O)N2)cc1` [Inhibitor 14], the Ki was 600 nM on Factor Xa (human) (setting [4]), 12 nM at plasma kallikrein, 5.4 nM on plasmin [2] and 219 nM on thrombin.

On to `N=C(N)c1ccc(CNC(=O)[C@@H]2CCCCNC(=O)c3cccc(c3)C(=O)NCCCC[C@@H](NS(=O)(=O)Cc3ccccc3)C(=O)N2)cc1` [Inhibitor 12], for which the Ki worked out at 376 nM on Factor Xa (human) (setting [4]), 18 nM on plasma kallikrein, 38 nM at plasmin [2] and 187 nM at thrombin.
